This is an account of results in US7897620B2, “Methods of using anti-inflammatory compounds” (Cambridge Enterprise Limited, priority 2007, dated 2011).

Series [1] in a line: Pharmacokinetics following a single dose in rat (LC-MS/MS of blood, one-compartment model). The format is in vivo. The settings on record: for AUC(0-inf): single oral dose 3 mg/kg in 1% CMC, read-out: Exposure (AUC 0->infinity) (converted); for clearance: read-out: Clearance; for bioavailability: po, 3 mg/kg. The method, then: Compounds were administered as a single dose (either 1 mg/kg bodyweight in 5% DMSO via the intravenous route or 3 mg/kg in 1% carboxymethylcellulose via the oral route) to three adult rats (using different rats for each compound and each route of administration).
Blood was then sampled at various time points (including just prior to dose administration) out to 24 hrs post dose, and the level of the various compounds was assessed using a validated LC-MS/MS assay. Briefly, 3-5 μl of the deproteinised sample was applied to a Waters Atlantis (C18 20×2.1 mm, 3 μm bead size) reverse phase chromatography column equilibrated in 0.1% formic acid in 95:5 water:actetonitrile. Over 3.5 minutes bound material was gradient eluted reaching 0.1% formic acid in 5:95 water:acetonitrile, followed by a step gradient back to 0.1% formic acid in 95:5 water:acetonitrile. The column eluent was then directed to an Applied Biosystems API 4000/3200 QTrap MS/MS mass spectrometer, with a Turbolonspray™ ion source operating in positive ion mode. The interface temperature was set at 650° C., with a 40 ms dwell time for each MRM transition, monitoring the following ions:
The internal standard in each determination was the related compound (S)-3-(2′,2′-dimethylpropanoylamino)-caprolactam, which was spiked into the sample prior to deproteinization. The lower limit of quantitation (LLOQ) for this assay was 2.4 ng/ml for each compound except (I′), where it was 38.1 ng/ml.
Following LC-MS/MS analysis of each collected sample, the pharmacokinetic disposition of the compound was modelled using Kinetica software, a well known software package for such applications.

The nature of series [2]: Identification of the primary metabolites in pooled 24 h urine (LC-MS-MS full scan). Particulars: rat, single oral dose 3 mg/kg in 1% CMC, qualitative. It is filed as in vivo. The method, then: Urine was collected from rats exposed to a single oral dose (3 mg/kg in 1% CMC) of each compound over a 24 hour period in metabolic cages. The pooled urine sample was then subjected to full scan mass spectral analysis, using the same LC-MS conditions as described in example 1 above. Further MS-MS analysis of the product ions was then performed, and likely fragmentations/re-arrangements assigned from the publicly available Metabolite ID database.
For the major metabolites, the assigned structures were confirmed by synthesis of authentic samples, using methods well known in the art, which were subject to LC-MS-MS analysis under the same conditions as the urine samples.
Note that metabolite ID studies provide only qualitative estimates of the relative amounts of the different metabolites present, and separately validated assays with appropriate internal standards would be required to quantitate each metabolite species.
The detected metabolites, in rank order of concentration detected are shown in FIG. 2 for the five compounds analysed. It is important to note that the methodology used here is not necessarily exhaustive, and further (particularly minor) metabolites may also be present which were below the detection limits for the methods applied here. As a general rule, it can be assumed that metabolites representing 10% or more of the injected dose will be detected (though not necessarily structurally identified) by the methods used here).

Series [3] deals with IL-8 induced neutrophil migration. As to the kind of experiment: ChemoTx transwell migration assay, IL-8 induced migration of neutrophils. The settings on record: maximal dose of chemoattractant, read-out: ED50 IL-8 neutrophils. The format is cell-based. The method, then: In principle, this assay consists of two chambers separated by a porous membrane. The chemoattractant is placed in the lower compartment and the cells are placed in the upper compartment. After incubation for a period at 37° C. the cells move towards the chemoattractant, and the number of cells in the lower compartment is proportional to the chemoattractant activity (relative to a series of controls).
Next, the chemoattractant solution to be placed in the lower compartment is prepared. For example, MCP-1 is diluted in GBSS+BSA to give a final concentration of 25 ng/ml. This is divided into two pots, as for the cell suspension. To one pot, the test compound is added to the same final concentration as was added to the cell suspension, while to the other pot an equal volume of GBSS+BSA plus vehicle as appropriate (e,g. not more than 1% DMSO) is added. Alternatively, other chemokines may be used (SDF-1α at 7.5 ng/ml; RANTES at 50 ng/ml; IL-8 at 10 ng/ml using neutrophils as the target cell population). In each case it is important to determine (in a separate experiment) the concentration of each chemokine which causes maximal stimulation of migration of the chosen target leukocyte population. […]
The number of cells migrated into the lower chamber under each condition can then be determined by a number of methods, including direct counting, labelling with fluorescent or radioactive markers or through the use of a vital dye. […] 3 μl of stock MTT solution are added to each well, and then the plate is incubated at 37° C. for 1-2 hours during which time dehydrogenase enzymes within the cells convert the soluble MTT to an insoluble blue formazan product that can be quantified spectrophotometrically. […]
At the end of this incubation, the liquid is carefully removed from the lower chambers, taking care not to disturb the precipitated formazan product. After allowing to air dry briefly, 20 μl of DMSO is added to each lower chamber to solubilise the blue dye, and absorbance at 595 nm is determined using a 96-well plate reader. […]

Where [4] appears, read: blood, rat, averaged across three rats.
Where [5] appears, read: rat, blood, iv, 1 mg/kg, rat, one-compartment model, averaged across three rats.
Setting [6] is: rat, one-compartment model, averaged across three rats.
Where [7] appears, read: plasma, iv, 1 mg/kg, rat, one-compartment model, averaged across three rats, read-out: t½ (mins) dominant plasma half-life.
[8] abbreviates: rat, blood, iv, 1 mg/kg, rat, one-compartment model, averaged across three rats, read-out: Vss (L/kg) volume of distribution.
[9] abbreviates: rat, blood, rat, 1 mg/kg iv in 5% DMSO and 3 mg/kg oral in 1% CMC, one-compartment model, averaged across three rats, read-out: F (%) oral bioavailability.
Setting [10] is: blood, Rat, Intravenous PK (1 mg/kg), read-out: Half-life.
Where [11] appears, read: blood, Rat, Oral PK (3 mg/kg), read-out: Half-life.
Setting [12] is: rat, blood, iv, 1 mg/kg, Rat, Intravenous PK (1 mg/kg).
The mark [13] stands for this setting: rat, blood, iv, 1 mg/kg, Rat, Intravenous PK (1 mg/kg), read-out: Vss.
Setting [14] is: rat, blood, Rat, Oral PK (3 mg/kg), read-out: Bioavailability (%).

Like-named read-outs stand apart in the source and are kept apart here.

As usually defined, the clearance is a measure of how efficiently the substance is removed, as volume per time. As for `O=C1NCCCC[C@@H]1NC(=O)C12CC3CC(CC(C3)C1)C2` [(II), 3-(adamantane-1-carbonylamino)-caprolactam], the AUC(0-inf) in series [1] (setting [4]) was 7.95 ng·h/mL. In addition, in series [1] (rat, 1 mg/kg iv in 5% DMSO and 3 mg/kg oral in 1% CMC, one-compartment model, averaged across three rats), the “F (%) oral bioavailability” value is listed as less than 1%. Further, the clearance in series [1] (setting [5]) stood at 84 mL/min/kg. In series [1] (setting [6]), the “Vss (L/kg) volume of distribution” value is 0.8 L/kg and the “t½ (mins) dominant plasma half-life” value is 16 min. Besides, the “major metabolite / route of metabolism detected in urine” value (“major metabolite / route” for short) in series [2] is recorded as “cytochrome P450-mediated hydroxylation”. Moreover, the EC50 in series [3] was 0.6 nM.

Broadly, the half-life is the time needed for the level to fall by half in the phase considered. As a reminder, the bioavailability is dose-corrected exposure relative to a reference, in per cent. On to `CC(C)(C)S(=O)(=O)N[C@H]1CCCCNC1=O` [(IV), 3-(1′,1′-dimethylethylsulfonylamino)-caprolactam], for which, in series [1] (setting [4]), the AUC(0-inf) is 690 ng·h/mL. The half-life in series [1] (setting [7]) was found to be 19 min. Further, in series [1] (setting [5]), the clearance worked out at 32 mL/min/kg. Moreover, the Vd in series [1] (setting [8]) was determined as 0.6 L/kg. The bioavailability in series [1] (setting [9]) worked out at 45%. Besides, in series [2], the “major metabolite / route” value is listed as “the major metabolite could not be identified”.

As a reminder, the AUC is concentration integrated over time. A word on the Tmax: it is the time at which the peak concentration occurs. As to `O=C1NCCCC[C@@H]1NC(=O)C12CC3CC(CC(O)(C3)C1)C2` [(V), 3-(3′-hydroxyadamantyl-1-carbonylamino)-caprolactam], the half-life in series [1] (setting [10]), in series [1] (setting [11]) and in series [1] (setting [7]) was 24 min throughout. In series [1] (blood, Rat, Oral PK (3 mg/kg)), the AUC is 952 ng·h/mL. In series [1] (blood, Rat, Oral PK (3 mg/kg)), the Tmax was 15 min. Besides, the AUC(0-inf) in series [1] (setting [4]) was 952 ng·h/mL. For the same compound, the clearance in series [1] (setting [12]) was found to be 33 mL/min/kg; in series [1] (setting [5]), 31 mL/min/kg. The Vd in series [1] (setting [13]) is 0.8 L/kg; in series [1] (setting [8]), 1.4 L/kg. The bioavailability in series [1] (setting [14]) and in series [1] (setting [9]) was 59% throughout. Moreover, the “major metabolite / route” value in series [2] is recorded as “the glucuronidated compound was the major metabolite”. The EC50 in series [3] is 0.5 nM.

With `CC(C)(C)C(=O)N[C@H]1CCCNC1=O` [Compound (I′), 3-(2′,2′-dimethylpropanoylamino)-tetrahydropyridin-2-one], the half-life in series [1] (setting [10]) was 196 min; in series [1] (setting [11]) it was 226 min; in series [1] (plasma, intravenous, 1 mg/kg, rat, read-out: plasma half-life), greater than 180 min; in series [1] (setting [7]), 196 min. In series [1] (blood, Rat, Oral PK (3 mg/kg)), this compound had an AUC of 15600 ng·h/mL. The Tmax in series [1] (blood, Rat, Oral PK (3 mg/kg)) was in the range of 15 to 120 min. In addition, in series [1] (setting [4]), the AUC(0-inf) is 15600 ng·h/mL. Also, the “clearance, times lower than for the other lactam BSCIs” value in series [1] (rat) is “more than 10 fold”. Further, the clearance in series [1] (rat, blood, intravenous, 1 mg/kg, rat, one-compartment model, averaged across three rats) came out at 2.6 mL/min/kg; in series [1] (setting [12]), 2.6 mL/min/kg. For the same compound, the Vd in series [1] (setting [13]) and in series [1] (setting [8]) was 0.7 L/kg each time. The bioavailability in series [1] (setting [14]) worked out at 81%; in series [1] (setting [9]), 69%. The “exposure relative to the next best compound (V)” value in series [1] (rat, oral) is recorded as roughly 20 fold. Besides, the “plasma half-life, fold longer” value in series [1] (rat, versus the other compounds examined) came out at 10 fold. Also, the “major metabolite / route” value in series [2] is “no significant metabolites of (I′) were detected in urine”. The EC50 in series [3] amounted to 0.6 nM.
